Reference: US7955847B2, “Method for enhancing leukocyte immune function” (priority 2004, dated 2011)

System: leukocyte NADPH oxidase (cytochrome b558)
Assay: Cell surface expression of cytochrome b558 (NADPH oxidase) by flow cytometry with antibody 7D5
Type: cell-based, human
Settings: leukocytes from X91-CGD patient; 2 hrs treatment; anti-cytochrome b558 antibody 7D5, flow cytometry
Experimental: Blood samples with EDTA were obtained from patients with X91-chronic granulomatous disease. The samples were water bathed at 37° C. in a lysate buffer containing ammonium chloride, sodium carbonate and EDTA for several minutes to lyze residual red blood cells. The samples were then added with a suspension buffer containing globulin and EDTA to wash and remove the residual lysate buffer. The leukocytes were collected by centrifugation and counted.
Total leukocytes were maintained in RPMI 1640 medium supplemented with 10% heat-inactivated FBS at 37° C. under a humidified atmosphere (5% CO2+95% air). The leukocytes were seeded at a density of 3 to 5×10^5/ml and grown for 2 hrs in the presence or absence of 100 nM cofactor FAD and/or thapsigargin (100 nM or 1 μM). The cells were then cultured in 10% RPMI to recover for 1 hr prior to the following experiments.
To test whether the treatment with thapsigargin or cofactor FAD alone or in combination has effects on the cell surface expression of leukocyte NADPH oxidase, the cell surface expressions of cytochrome b558 in leukocytes with or without desired treatment were assayed. Leukocytes were prepared as illustrated in Example 1. The leukocytes, at the concentration of 5×10^5 cells/ml, were incubated with anticytochrome b558 monoclonal antibody (7D5) at 4° C. for 30 min, followed by incubation with FITC-labeled goat anti-mouse IgG for 40 min.

## Cc1cc2nc3c(=O)[nH]c(=O)nc-3n(C[C@H](O)[C@H](O)[C@H](O)COP(=O)(O)OP(=O)(O)OC[C@H]3O[C@@H](n4cnc5c(N)ncnc54)[C@H](O)[C@@H]3O)c2cc1C [cofactor FAD, flavin adenine dinucleotide]
  cell surface NADPH oxidase expression: slightly enhanced

## C/C=C(/C)C(=O)O[C@H]1C(C)=C2[C@H]([C@@H]1OC(=O)CCCCCCC)[C@@](C)(OC(C)=O)C[C@H](OC(=O)CCC)[C@@]1(O)[C@H]2OC(=O)[C@@]1(C)O [thapsigargin]
  cell surface NADPH oxidase expression: slightly enhanced
